Holding throughout (test): inhibition of tumour cell growth, NCI panel, 48 h
Test [1] concerns A549 NSCLC.
Test [2] deals with HCT-15 colon.
Test [3] deals with HOP-92 NSCLC.
Test [4] relates to HT29 colon.
The test system of test [5] is OVCAR-8 ovarian.
The subject of test [6] is SK-MEL-28 melanoma.
Test [7] deals with SK-OV-3 ovarian.

Values joined by “and” are separate entries in the source; they are usually repeats but may differ in a detail not shown here. Identical values can stand only once.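 Test compounds were applied to cells in 96-well plates for 48 hours at 5 doses. Abbreviation: GI50, concentration required for 50% inhibition of growth. TGI denotes the concentration required for complete inhibition of growth.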

In the case of `CCSc1nc2sc(C)c(C)c2c(=O)n1-c1ccc(C(=O)O)cc1`, the TGI in test [1], in test [2], in test [3], in test [4], in test [5] and in test [6] was more than 100 µM throughout. Further, in test [7], the TGI is more than 100 µM.
With `CC(=O)OCC1OC(OC2CC3C(C)(C)C(OC(C)=O)CC[C@]3(C)C3CCC45CC4(CC[C@H]5C(C)CC(O)C4OC4(C)C)[C@]23C)C(O)C(O)C1O` (some centres undefined), the GI50 in test [1] was 4.26 µM; in test [2] it was 4.04 µM; in test [4], 1.86 µM; in test [5], 3 µM; in test [6] it was 2.99 µM; in test [7], 3.22 µM. For the same compound, the TGI is 8.37 µM and 15.2 µM in test [1]; 6 µM and 13.3 µM in test [2]; 6.33 µM in test [3]; 1.73 µM and 3.38 µM in test [4]; 8.24 µM and 9.67 µM in test [5]; 7.11 µM and 9.32 µM in test [6]. Also, the TGI in test [7] was 8.7 µM and 11.2 µM.
For `CCCCCCCCCCCCCC/C(C(=O)OC)=C(/O)C(=O)OCC`, the TGI in test [1] is 64.9 µM; in test [2] it was 36.3 µM; in test [3], 54.5 µM; in test [4], more than 100 µM; in test [5], more than 100 µM; in test [6] it was 50.8 µM. This compound returned a TGI in test [7] of more than 100 µM.
With `FC(F)(F)c1ccc(C=NC23CC4CC(CC(C4)C2)C3)cc1`, the TGI in test [1], in test [2], in test [3], in test [4], in test [5] and in test [6] was more than 100 µM in each case. Further, the TGI in test [7] is more than 100 µM.
Consider `O=C1CC2CCCCC2=C1O` (centres undefined), for which the TGI in test [1], in test [2], in test [5], in test [6] and in test [7] was more than 100 µM in each case.
Regarding `COC(=O)C1=C(C(=O)OC)C23C=CC=CC24C(C(=O)OC)=C(C(=O)OC)C4C1C3` (centres undefined), the TGI in test [1], in test [2], in test [3], in test [4], in test [5] and in test [6] was more than 100 µM throughout.
With `NC(=O)c1csc(C2C=CC(CO)O2)n1` (centres undefined), the TGI in test [1], in test [2], in test [3], in test [4], in test [5] and in test [6] was more than 100 µM each time. Moreover, the TGI in test [7] was more than 100 µM.
`C/C(=N\NC(=O)CC(=O)Nc1ccc(Cl)cc1)c1cc2ccccc2oc1=O`: the TGI in test [1], in test [2], in test [4], in test [5], in test [6] and in test [7] was more than 100 µM in each case.
`Cn1cc2c(n1)c(N/N=C/c1ccccc1)nn1nnnc21`: the TGI in test [1], in test [2], in test [3], in test [4], in test [5] and in test [6] was more than 100 µM each time. Besides, in test [7], the TGI is more than 100 µM.
As to `N/N=C1\c2ccccc2C2/C(=N\N)c3ccccc3C12` (centres undefined), the TGI in test [1], in test [2], in test [3], in test [4], in test [5] and in test [6] was more than 100 µM throughout. Besides, in test [7], the TGI is more than 100 µM.
In the case of `C=CCNC1=C(C(=O)OCC)C(=O)CO1`, the TGI in test [1], in test [2], in test [3], in test [4], in test [5] and in test [6] was more than 100 µM each time.
Turning to `COc1ccc(NC(=O)C(=O)NNC(=O)c2sc(NNC(C)=O)nc2C)c([N+](=O)[O-])c1`, the TGI in test [1], in test [2], in test [3], in test [4], in test [5] and in test [6] was more than 100 µM in each case. This compound came in with a TGI in test [7] of more than 100 µM.
Consider `Cc1ccc(S(=O)(=O)CNC(=S)CCCC(=S)NCS(=O)(=O)c2ccc(C)cc2)cc1`, for which the TGI was more than 100 µM in test [1]; more than 100 µM in test [2]; 50.3 µM in test [3]; more than 100 µM in test [4]; more than 100 µM in test [5]; more than 100 µM in test [7].
Take `NC(=O)N/N=C(\Cc1nc2ccc(C(=O)c3ccccc3)cc2[nH]c1=O)C(=O)Nc1ccc(Br)cc1`: the TGI in test [1], in test [2], in test [3], in test [4], in test [5] and in test [6] was more than 100 µM throughout. For the same compound, the TGI in test [7] is more than 100 µM.
As to `CC(=O)O[C@H]1[C@@H]2[C@@H]3[C@@H](C[C@H]1C)[C@@H](C)CO[C@@]1(C)CC/C=C(/C)C[C@@H]2O[C@@H]31`, the TGI in test [1], in test [2], in test [3], in test [4], in test [5] and in test [6] was more than 100 µM each time. The compound also registered a TGI in test [7] of more than 100 µM.
`Cc1ccc(S(=O)(=O)N2CCC3(C(/C=C/c4ccccc4)=Nc4ccccc43)C2c2ccccc2)cc1` (centres undefined): the TGI in test [1], in test [2], in test [3], in test [4], in test [5] and in test [6] was more than 100 µM in each case. In addition, in test [7], the TGI was more than 100 µM.
`N#C/C(=C/c1cccnc1)C(=O)c1ccccc1`: the TGI in test [1], in test [2], in test [3], in test [4], in test [5] and in test [6] was more than 100 µM in each case. In test [7], this compound yielded a TGI of more than 100 µM.
In the case of `O=[N+]([O-])c1ccc(NC2OCC(O)C(O)C2O)cc1` (centres undefined), the TGI in test [1], in test [2], in test [3], in test [4], in test [5] and in test [6] was more than 100 µM throughout. This compound also gave a TGI in test [7] of more than 100 µM.
As for `Cc1cc(N(CCC#N)CCC#N)ccc1/C=C(\NC(=O)/C=C/c1ccccc1)NC(=O)Nc1ccc(Cl)cc1`, the TGI in test [1], in test [2], in test [3], in test [4], in test [5] and in test [6] was more than 100 µM in each case.
Consider `CC1=C(C(=O)Nc2ccccc2C)C(c2ccc([N+](=O)[O-])cc2)C(C(=O)Nc2ccccc2C)=C(C)N1`, for which the TGI in test [1], in test [2], in test [4], in test [5], in test [6] and in test [7] was more than 100 µM each time.
Consider `O=C([O-])c1ccc2c(c1)-c1nc-2nc2[n-]c(nc3nc(nc4[n-]c(n1)c1ccc(C(=O)[O-])cc41)-c1cc(C(=O)[O-])ccc1-3)c1ccc(C(=O)[O-])cc21.[Fe+2]`, for which the GI50 is more than 50 µM in test [1]; more than 22.3 µM in test [2]; more than 50 µM in test [3]; more than 50 µM in test [4]; more than 50 µM in test [5]; more than 50 µM in test [6]. Moreover, the GI50 in test [7] was more than 50 µM. In addition, the TGI is more than 50 µM in test [1]; more than 32.1 µM in test [2]; more than 50 µM in test [3]; more than 50 µM in test [4]; more than 50 µM in test [5]; more than 50 µM in test [6]. In test [7], the TGI was more than 50 µM.
As to `CCOP(=O)(CC(=O)C1=C(O)C(CCCNC(=O)OC(C)(C)C)N(Cc2ccc(OC)c(OC)c2)C1=O)OCC` (centres undefined), the TGI in test [1], in test [4], in test [5] and in test [6] was more than 100 µM each time.
Take `CC12O[C@H](c3ccccc3)[C@H](c3ccccc3)N1C(=O)C1(C(=O)OCc3ccccc3)CC12` (some centres undefined): the TGI in test [1], in test [2], in test [3], in test [4], in test [5] and in test [7] was more than 100 µM in each case.
`CC1CCCC(C(O)CC2CC(=O)N(c3ccccc3)C(=O)C2)C1=O` (centres undefined): the TGI in test [1], in test [3], in test [4], in test [5], in test [6] and in test [7] was more than 100 µM each time.
As to `O=C(CC/C(C/C(=N/O)c1ccc(F)cc1)=N/O)N(Cc1ccccc1)Cc1ccccc1`, the TGI in test [1], in test [2], in test [3], in test [4], in test [5] and in test [6] was more than 100 µM throughout.

The record behind these values is PubChem BioAssay (NCI).
